This passage reports EC50 results from patent US8846638B2, “Macrocyclic nucleoside phosphoramidate derivatives” (Enanta Pharmaceuticals, Inc., priority 2012, dated 2014).

The test system of test [1] is HCV 1a genotype replicon (strain H77, Huh-1a7 cell line). Nature of the test: HCV replicon assay, qRT-PCR, genotype 1a (Huh-1a7 cells). Particulars: Hepatitis C virus; Genotype-1a replicon, HCV RNA by qRT-PCR normalized to GAPDH RNA. The class given is cell-based. From the text: (§1) HCV replicon cell lines (kindly provided by R. Bartenschlager) isolated from colonies as described by Lohman et al. (Lohman et al. (1999) Science 285: 110-113, expressly incorporated by reference in its entirety) and used for all experiments. One of the HCV replicon cell lines (strain Con1, genotype 1b) has the nucleic acid sequence set forth in EMBL Accession No.: AJ242651, the coding sequence of which is from nucleotides 1801 to 8406. Another replicon cell line (strain H77, genotype 1a) was constructed as described by Yi et. al. (Yi et. al. (2004) Journal of Virology 78(15):7904-15). The coding sequences of the published HCV replicons were synthesized and subsequently assembled in plasmids using standard molecular biology techniques.
(§2) One replicon cell line (“SGR 11-7”) stably expresses HCV replicon RNA, genotype 1b, which consists of (i) the HCV 5′UTR fused to the first 12 amino acids of the capsid protein, (ii) the neomycin phosphotransferase gene (neo), (iii) the IRES from encephalomyocarditis virus (EMCV) and (iv) HCV […] to NS5B genes and the HCV 3′UTR. Another replicon cell line (“Huh-1a7”) described by Yi et. al. (Yi et. al. (2004) Journal of Virology 78(15):7904-15, expressly incorporated by reference in its entirety) stably expresses HCV replicon RNA, genotype 1a, which consists of (i) the HCV 5′UTR fused to the first 12 amino acids of the capsid protein, (ii) the HIV tat protein, (iii) the neomycin phosphotransferase gene (neo), (iv) the IRES from encephalomyocarditis virus (EMCV) and (vi) HCV NS3 to NS5B genes that harbor cell culture adaptive mutations (Q1067R, K1691R, S2204I) and the HCV 3′UTR.
(§3) These cell lines are maintained at 37° C., 5% CO2, 100% relative humidity in DMEM (Cat#11965-084, Invitrogen), with 10% fetal calf serum (“FCS”, Invitrogen), 1% non-essential amino acids (Invitrogen), 1% of Glutamax (Invitrogen), 1% of 10× penicillin/streptomycin (Cat#15140-122, Invitrogen) and Geneticin (Cat#10131-027, Invitrogen) at 0.75 mg/ml or 0.25 mg/ml for 11-7 and Huh-1a7 cells, respectively.
(§4) EC50 values of single agent compounds were determined by HCV RNA detection using quantitative RT-PCR, according to the manufacturer's instructions, with a TAQMAN® One-Step RT-PCR Master Mix Reagents Kit (Cat#AB 4309169, Applied Biosystems) on an ABI Model 7500 thermocycler. EC50 values of combinations are similarly determined by HCV RNA detection using quantitative RT-PCR. The TAQMAN primers to use for detecting and quantifying HCV RNA obtained from Integrated DNA Technologies. HCV RNA is normalized to GAPDH RNA levels in drug-treated cells, which is detected and quantified using the Human GAPDH Endogenous Control Mix (Applied Biosystems, AB 4310884E). Total cellular RNA is purified from 96-well plates using the RNAqueous 96 kit (Ambion, Cat#AM1812). Chemical agent cytotoxicity is evaluated using an MTS assay according to the manufacturer's directions (Promega).
(§5) The compounds of the present invention can be effective against the HCV 1a and 1b genotypes. It should also be understood that the compounds of the present invention can inhibit multiple genotypes of HCV. In one embodiment, compounds of the present invention are active against the 1a, 1b, 2a, 2b, 3a, 4a, and 5a genotypes. […] EC50 ranges against HCV 1a or 1b are as follows: A>1 μM; B 0.1-1 μM; C<0.1 μM.

Test [2] concerns HCV 1b genotype replicon (strain Con1, SGR 11-7 cell line). The test can be described thus: HCV replicon assay, qRT-PCR, genotype 1b (SGR 11-7 cells). Particulars: Hepatitis C virus; Genotype-1b replicon, HCV RNA by qRT-PCR normalized to GAPDH RNA. It counts as cell-based.
Source text: as §1, §2, §3, §4, §5
For orientation: A replicon is a self-replicating genome or part of one, used to study replication in cells.

The EC50 is the concentration at which the effect is half-maximal.

As to `C[C@@H]1NP(=O)(Oc2cccc3ccccc23)OCC2OC(n3cnc4c(nc(N)nc43)OCCC=CCCCOC1=O)[C@](C)(O)[C@@H]2O` (stereo partly shown) [Example 10], the EC50 in test [1] and in test [2] was 100 to 1000 nM throughout.
As to `C[C@@H]1NP(=O)(Oc2cccc3ccccc23)OCC2OC(n3cnc4c(nc(N)nc43)OCCCCCCOC1=O)[C@](C)(O)[C@@H]2O` (stereo partly shown) [Example 7], the EC50 in test [1] was < 100 nM; in test [2] it was 100 to 1000 nM.
Take `C[C@@H]1NP(=O)(Oc2ccccc2)OCC2OC(n3cnc4c(nc(N)nc43)OCCCCCCCCOC1=O)[C@](C)(O)[C@@H]2O` (stereo partly shown) [Example 9]: the EC50 in test [1] and in test [2] was 100 to 1000 nM each time.
With `C[C@@H]1NP(=O)(Oc2cccc3ccccc23)OCC2OC(n3cnc4c(nc(N)nc43)OCCCCC(F)(F)COC1=O)[C@](C)(O)[C@@H]2O` (stereo partly shown) [Example 2], the EC50 in test [1] and in test [2] was 100 to 1000 nM each time.
With `C[C@@H]1NP(=O)(Oc2cccc3ccccc23)OCC2OC(n3cnc4c(nc(N)nc43)OCCCCCOCCCOC1=O)[C@](C)(O)[C@@H]2O` (stereo partly shown) [Example 5], the concentration for a half-maximal effect (EC50) was 100 to 1000 nM in test [1] and > 1000 nM in test [2].
Consider `CC(C)C[C@@H]1NP(=O)(Oc2cccc3ccccc23)OCC2OC(n3cnc4c(nc(N)nc43)OCCCCCCCOC1=O)[C@](C)(O)[C@@H]2O` (stereo partly shown) [Example 4], for which the half-maximal effective concentration (EC50) in test [1] was 100 to 1000 nM; in test [2] it was > 1000 nM.
As to `C[C@@H]1NP(=O)(Oc2cccc3ccccc23)OCC2OC(n3cnc4c(nc(N)nc43)OCCCCCCCOC1=O)[C@](C)(O)[C@@H]2O` (stereo partly shown) [Example 3], the EC50 was < 100 nM in test [1] and 100 to 1000 nM in test [2].
Turning to `C[C@@H]1NP(=O)(Oc2ccccc2)OCC2OC(n3cnc4c(nc(N)nc43)OCCCCCCCOC1=O)[C@](C)(O)[C@@H]2O` (stereo partly shown) [Example 8], the 50% effective concentration (EC50) in test [1] and in test [2] was 100 to 1000 nM throughout.
